The target of assay [1] is T1, Muscarinic acetylcholine receptor M1 (Homo sapiens, UniProt P11229).
T1 sequence (P11229 whole entry): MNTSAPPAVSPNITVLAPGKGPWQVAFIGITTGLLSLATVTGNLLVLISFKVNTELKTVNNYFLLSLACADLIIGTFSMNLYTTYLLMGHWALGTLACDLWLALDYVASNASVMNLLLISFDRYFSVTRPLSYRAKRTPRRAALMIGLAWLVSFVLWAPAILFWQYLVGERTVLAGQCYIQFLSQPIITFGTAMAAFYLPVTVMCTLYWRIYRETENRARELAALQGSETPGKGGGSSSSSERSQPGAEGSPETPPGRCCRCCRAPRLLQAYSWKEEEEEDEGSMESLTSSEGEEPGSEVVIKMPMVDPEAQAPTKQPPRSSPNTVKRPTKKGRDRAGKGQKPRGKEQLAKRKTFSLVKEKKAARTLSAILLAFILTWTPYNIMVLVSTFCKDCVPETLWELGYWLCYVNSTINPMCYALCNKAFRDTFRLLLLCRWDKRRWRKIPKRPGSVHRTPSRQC
Type of assay: functional.

The target of assay [2] is T1, Muscarinic acetylcholine receptor M1. It is filed as functional, cell-based.
The next assay concerns the target Histamine H1 receptor (Homo sapiens, UniProt P35367).
A further assay addresses T2, Adenosine receptor A3 (Homo sapiens, UniProt P0DMS8).
T2 sequence (P0DMS8 whole entry): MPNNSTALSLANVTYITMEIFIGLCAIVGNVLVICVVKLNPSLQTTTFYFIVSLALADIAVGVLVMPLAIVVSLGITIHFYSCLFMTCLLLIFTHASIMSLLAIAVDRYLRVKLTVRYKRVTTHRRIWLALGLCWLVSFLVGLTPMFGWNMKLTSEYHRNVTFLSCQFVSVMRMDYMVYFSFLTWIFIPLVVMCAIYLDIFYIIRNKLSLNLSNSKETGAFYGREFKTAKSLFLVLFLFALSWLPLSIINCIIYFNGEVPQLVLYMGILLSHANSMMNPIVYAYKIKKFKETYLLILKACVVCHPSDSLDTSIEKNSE

The target in assay [3] is 5-hydroxytryptamine receptor 2B (Homo sapiens, UniProt P41595). Type of assay: functional, cell-based.
The target of assay [4] is T3, Alpha-1A adrenergic receptor (Homo sapiens, UniProt P35348).
T3 sequence (P35348 whole entry): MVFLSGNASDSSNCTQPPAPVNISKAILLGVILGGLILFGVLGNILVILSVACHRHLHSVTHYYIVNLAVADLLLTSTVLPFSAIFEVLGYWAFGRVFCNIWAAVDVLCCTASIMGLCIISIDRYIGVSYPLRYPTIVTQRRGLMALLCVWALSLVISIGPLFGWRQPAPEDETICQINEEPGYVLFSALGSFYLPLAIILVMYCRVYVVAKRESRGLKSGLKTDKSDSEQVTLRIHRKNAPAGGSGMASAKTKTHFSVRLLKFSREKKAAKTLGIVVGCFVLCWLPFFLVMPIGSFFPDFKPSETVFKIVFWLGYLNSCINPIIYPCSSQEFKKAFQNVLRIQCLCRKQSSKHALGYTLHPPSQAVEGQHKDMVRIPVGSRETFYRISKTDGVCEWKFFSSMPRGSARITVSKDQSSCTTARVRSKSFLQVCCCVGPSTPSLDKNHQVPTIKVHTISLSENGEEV
It is filed as functional, cell-based.

A further assay addresses D(1A) dopamine receptor (Homo sapiens, UniProt P21728). It is filed as functional, cell-based.
In assay [5] the target is T4, Alpha-2A adrenergic receptor (Homo sapiens, UniProt P08913).
T4 sequence (P08913 whole entry): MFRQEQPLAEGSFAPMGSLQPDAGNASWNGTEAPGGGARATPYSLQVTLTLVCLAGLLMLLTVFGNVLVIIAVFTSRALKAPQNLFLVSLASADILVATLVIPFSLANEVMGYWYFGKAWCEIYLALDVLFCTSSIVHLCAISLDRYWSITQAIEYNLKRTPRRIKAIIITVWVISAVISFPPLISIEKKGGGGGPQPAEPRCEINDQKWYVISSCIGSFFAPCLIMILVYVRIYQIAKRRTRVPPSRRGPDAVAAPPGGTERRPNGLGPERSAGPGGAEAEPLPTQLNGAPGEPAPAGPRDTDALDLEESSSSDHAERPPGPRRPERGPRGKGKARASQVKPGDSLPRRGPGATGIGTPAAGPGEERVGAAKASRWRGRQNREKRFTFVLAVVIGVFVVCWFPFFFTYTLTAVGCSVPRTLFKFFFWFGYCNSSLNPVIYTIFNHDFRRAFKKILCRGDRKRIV
Type of assay: functional, cell-based.

Assay [6] deals with T3, Alpha-1A adrenergic receptor. It is filed as functional, cell-based. This is another data set of the same source.
Assay [7] deals with T5, 5-hydroxytryptamine receptor 1A (Homo sapiens, UniProt P08908).
T5 sequence (P08908 whole entry): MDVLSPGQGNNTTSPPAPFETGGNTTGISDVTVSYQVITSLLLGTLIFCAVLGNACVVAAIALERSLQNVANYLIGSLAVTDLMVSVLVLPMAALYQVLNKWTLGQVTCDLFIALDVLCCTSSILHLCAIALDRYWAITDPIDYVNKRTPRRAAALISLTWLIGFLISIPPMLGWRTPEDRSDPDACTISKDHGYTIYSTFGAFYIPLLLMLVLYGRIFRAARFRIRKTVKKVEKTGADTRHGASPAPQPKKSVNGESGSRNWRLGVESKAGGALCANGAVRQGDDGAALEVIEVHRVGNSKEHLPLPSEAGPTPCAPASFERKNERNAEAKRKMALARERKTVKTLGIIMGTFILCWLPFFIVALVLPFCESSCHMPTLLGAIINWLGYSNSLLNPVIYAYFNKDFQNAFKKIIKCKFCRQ
Type of assay: functional, cell-based.

The values below come from ChEMBL document CHEMBL5291721, “A preclinical secondary pharmacology resource illuminates target-adverse drug reaction associations of marketed drugs” (Nat Commun, 2023).

Broadly, the AC50 is the concentration at which the activity in the assay is half-maximal.
Further: assay procedure not described here.

Histamine H1 receptor, sequence (P35367 whole entry): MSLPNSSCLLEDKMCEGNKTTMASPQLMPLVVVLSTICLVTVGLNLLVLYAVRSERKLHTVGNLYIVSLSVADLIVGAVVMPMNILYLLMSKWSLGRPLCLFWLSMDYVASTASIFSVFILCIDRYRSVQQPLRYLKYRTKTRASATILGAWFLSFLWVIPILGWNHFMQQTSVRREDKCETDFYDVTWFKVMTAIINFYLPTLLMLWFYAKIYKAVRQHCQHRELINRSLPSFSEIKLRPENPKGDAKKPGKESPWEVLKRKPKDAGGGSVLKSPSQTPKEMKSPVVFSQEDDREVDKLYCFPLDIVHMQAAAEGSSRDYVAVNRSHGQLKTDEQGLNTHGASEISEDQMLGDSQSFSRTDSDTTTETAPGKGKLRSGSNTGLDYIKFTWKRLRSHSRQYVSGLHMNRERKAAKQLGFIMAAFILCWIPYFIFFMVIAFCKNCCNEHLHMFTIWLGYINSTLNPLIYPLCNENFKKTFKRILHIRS
5-hydroxytryptamine receptor 2B, sequence (P41595 whole entry): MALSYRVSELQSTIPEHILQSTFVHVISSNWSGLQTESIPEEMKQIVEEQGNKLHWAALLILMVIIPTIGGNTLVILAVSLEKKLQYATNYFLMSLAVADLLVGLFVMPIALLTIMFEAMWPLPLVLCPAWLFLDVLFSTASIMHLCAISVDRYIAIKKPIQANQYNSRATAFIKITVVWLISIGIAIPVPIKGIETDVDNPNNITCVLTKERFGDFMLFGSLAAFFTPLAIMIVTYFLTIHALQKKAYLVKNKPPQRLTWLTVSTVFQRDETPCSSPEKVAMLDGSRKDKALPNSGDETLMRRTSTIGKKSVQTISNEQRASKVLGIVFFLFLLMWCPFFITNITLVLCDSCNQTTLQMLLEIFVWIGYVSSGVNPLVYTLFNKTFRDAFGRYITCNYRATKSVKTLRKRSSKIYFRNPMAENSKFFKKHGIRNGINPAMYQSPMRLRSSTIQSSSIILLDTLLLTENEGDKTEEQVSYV
D(1A) dopamine receptor, sequence (P21728 whole entry): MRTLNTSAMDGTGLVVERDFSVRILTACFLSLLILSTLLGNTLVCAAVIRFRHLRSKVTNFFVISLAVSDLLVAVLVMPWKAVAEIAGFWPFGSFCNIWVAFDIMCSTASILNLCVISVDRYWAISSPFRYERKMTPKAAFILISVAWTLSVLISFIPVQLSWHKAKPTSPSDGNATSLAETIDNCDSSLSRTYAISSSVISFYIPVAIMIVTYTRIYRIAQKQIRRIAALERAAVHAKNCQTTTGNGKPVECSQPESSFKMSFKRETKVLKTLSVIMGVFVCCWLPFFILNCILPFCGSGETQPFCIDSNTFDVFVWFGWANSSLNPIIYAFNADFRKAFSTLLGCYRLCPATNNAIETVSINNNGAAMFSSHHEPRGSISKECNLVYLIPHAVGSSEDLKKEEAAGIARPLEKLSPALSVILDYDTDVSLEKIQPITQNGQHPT

In the case of `O=C(O)c1cccc(-c2noc(-c3ccccc3F)n2)c1`, the AC50 in assay [1] is more than 10 µM; in assay [2] it was more than 30 µM; on Histamine H1 receptor, more than 10 µM; on Adenosine receptor A3 it was more than 30 µM.

For `O=C(Nc1ccccc1)OCC(CN1CCCCC1)OC(=O)Nc1ccccc1` (stereo not drawn) [DIPERODON], the AC50 was more than 10 µM in assay [1]; 15 µM in assay [3]; more than 30 µM in assay [4]; more than 30 µM in assay [2]; more than 10 µM at D(1A) dopamine receptor; more than 10 µM on Histamine H1 receptor. Further, the AC50 is more than 10 µM in assay [5], more than 30 µM in assay [6], more than 30 µM on Adenosine receptor A3 and more than 10 µM in assay [7].

Consider `CS(=O)(=O)Nc1cc2occ(NC=O)c(=O)c2cc1Oc1ccccc1` [IGURATIMOD], for which the AC50 (in assay [1]; in assay [3]; in assay [2]; on Histamine H1 receptor; at Adenosine receptor A3) was more than 30 µM throughout.

Consider `CCC(Cc1c(I)cc(I)c(N)c1I)C(=O)O` (stereo not drawn) [IOPANOIC ACID], for which half-maximal activity in [2] (AC50) was put at 14.5 µM. In other words, the double-digit micromolar range.

In [2], `O=C(NC1CCN(CCCCC2(C(=O)NCC(F)(F)F)c3ccccc3-c3ccccc32)CC1)c1ccccc1-c1ccc(C(F)(F)F)cc1` [LOMITAPIDE] returned an AC50 of 3.86 µM.

As to `CCN(CC)CCNc1ccc(C)c2sc3ccccc3c(=O)c12` [LUCANTHONE], the AC50 in assay [2] turned out to be 4.21 µM.

As to `CCOC(=O)CC(SP(=S)(OC)OC)C(=O)OCC` (stereo not drawn) [MALATHION], the activity in assay [2] was half-maximal at 27.1 µM (AC50).

As to `CCC1(c2cccc(O)c2)CCCCN(C)C1` (stereo not drawn) [MEPTAZINOL], the concentration at half-maximal activity (AC50) in assay [2] was more than 30 µM.

With `C1N2CN3CN1CN(C2)C3` [METHENAMINE], in assay [2], the AC50 is more than 30 µM.

`O=[N+]([O-])c1cncn1CCN1CCOCC1` [NIMORAZOLE] came in with an AC50 in assay [2] of more than 30 µM.

Regarding `NC(=O)c1cccc2cn(-c3ccc([C@@H]4CCCNC4)cc3)nc12` [NIRAPARIB], in [2], the half-maximal activity concentration (AC50) is more than 30 µM.

Regarding `CC[C@@H]1/C=C(\C)C[C@H](C)C[C@H](OC)[C@H]2O[C@@](O)(C(=O)C(=O)N3CCCC[C@H]3C(=O)O[C@H](/C(C)=C/[C@@H]3CC[C@H](Cl)[C@H](OC)C3)[C@H](C)[C@@H](O)CC1=O)[C@H](C)C[C@@H]2OC` [PIMECROLIMUS], the AC50 in assay [2] was more than 30 µM.

On to `CC(C(=O)O)c1ccc2c(c1)Cc1cccnc1O2` (stereo not drawn) [PRANOPROFEN], for which the AC50 in assay [2] was more than 30 µM.

In the case of `O=C(O)CCn1c2c(c3ccccc31)C[C@H](NS(=O)(=O)c1ccc(F)cc1)CC2` [RAMATROBAN], the AC50 in assay [1] was more than 10 µM; in assay [3], more than 10 µM; in [2] it was more than 30 µM; on D(1A) dopamine receptor, more than 30 µM; on Histamine H1 receptor, more than 10 µM; in [5], more than 10 µM. Also, the AC50 was more than 30 µM at Adenosine receptor A3 and more than 10 µM in [7].

Consider `CN1CCC2=C(C1)c1ccccc1Cc1ccccc12` [SETIPTILINE], for which the activity in [2] was half-maximal at 8.28 µM (AC50). This counts as single-digit micromolar.

In assay [2], `COc1ccc(CCC(C)NCC(O)c2ccc(O)c([S+](C)[O-])c2)cc1` (stereo not drawn) [SULFINALOL] displayed an AC50 of more than 30 µM.

In [2], `CCC1C(C)=NN=C(c2ccc(OC)c(OC)c2)c2cc(OC)c(OC)cc21` (stereo not drawn) [TOFISOPAM] yielded an AC50 of 25.3 µM. In other words, the double-digit micromolar range.

On to `COc1cc(NCc2ccc3nc(N)nc(N)c3c2C)cc(OC)c1OC` [TRIMETREXATE], for which, in assay [2], the activity was half-maximal at 12.3 µM (AC50).

Molecule `C[C@@H]1O[C@@H](OC[C@H]2O[C@@H](Oc3c(-c4ccc(OCCO)c(OCCO)c4)oc4cc(OCCO)cc(O)c4c3=O)[C@H](O)[C@@H](O)[C@@H]2O)[C@H](O)[C@H](O)[C@H]1O` [TROXERUTIN] returned a half-maximal activity concentration (AC50) in [2] of more than 30 µM.

As for `COc1cc2c(cc1OC)[C@H]1C[C@@H](OC(=O)[C@@H](N)C(C)C)[C@H](CC(C)C)CN1CC2` [VALBENAZINE], the AC50 in [2] was more than 10 µM.
